From patent US9718804B2, “GSK-3 inhibitors” (BRISTOL-MYERS SQUIBB COMPANY, priority 2013, dated 2017)
Where two headings read alike, the source gives them in different places.

Experiments:
GSK3β = GSK3β (Homo sapiens, UniProt P49841); experiment: GSK3β kinase assay (Caliper LabChip, fluoresceinated peptide substrate); assay type: biochemical
Method in brief: (§1)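 Reactions run 20 hours at room temperature, stopped with EDTA. Phosphorylated and unphosphorylated fluoresceinated peptide separated electrophoretically on Caliper LabChip3000. Eleven compound concentrations tested; IC50 by non-linear regression.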

GSK3α = GSK3α (Homo sapiens, UniProt P49840); experiment: GSK3α kinase assay (Caliper LabChip, fluoresceinated peptide substrate); assay type: biochemical
Chain of GSK3α (P49840 whole entry, species assumed): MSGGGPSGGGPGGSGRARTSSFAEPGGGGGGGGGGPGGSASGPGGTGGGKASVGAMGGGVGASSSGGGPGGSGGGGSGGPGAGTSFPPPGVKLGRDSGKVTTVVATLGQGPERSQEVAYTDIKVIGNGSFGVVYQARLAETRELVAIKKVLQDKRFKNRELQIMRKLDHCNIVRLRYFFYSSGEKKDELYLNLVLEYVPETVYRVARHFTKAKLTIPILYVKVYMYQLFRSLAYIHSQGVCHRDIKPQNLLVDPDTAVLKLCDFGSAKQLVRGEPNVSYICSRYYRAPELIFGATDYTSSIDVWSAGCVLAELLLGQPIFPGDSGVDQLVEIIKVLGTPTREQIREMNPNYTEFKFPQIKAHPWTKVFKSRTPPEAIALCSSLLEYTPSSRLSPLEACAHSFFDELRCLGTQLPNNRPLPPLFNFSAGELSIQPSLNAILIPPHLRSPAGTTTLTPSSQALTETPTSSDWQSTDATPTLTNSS
Method in brief: as §1

pTau = pTau assay (no method described); assay type: cell-based
[1] = first value of the cell, 250 pM enzyme, 20 uM ATP, 20 hours at room temperature, read-out: GSK3β/α (nM): GSK3β IC50

Chain of GSK3β (P49841 whole entry, species assumed): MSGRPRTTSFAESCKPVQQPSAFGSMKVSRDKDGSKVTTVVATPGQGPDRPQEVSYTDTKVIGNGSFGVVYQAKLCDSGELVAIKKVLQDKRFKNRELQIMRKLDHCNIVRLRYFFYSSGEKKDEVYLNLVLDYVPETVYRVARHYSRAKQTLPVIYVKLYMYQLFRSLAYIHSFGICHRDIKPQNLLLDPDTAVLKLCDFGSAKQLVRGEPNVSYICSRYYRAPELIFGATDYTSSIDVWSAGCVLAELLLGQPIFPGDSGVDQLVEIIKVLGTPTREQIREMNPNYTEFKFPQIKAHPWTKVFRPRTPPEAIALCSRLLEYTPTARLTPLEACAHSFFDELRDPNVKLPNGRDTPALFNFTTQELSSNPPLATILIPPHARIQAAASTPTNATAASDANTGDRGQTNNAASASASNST

| Compound | IC50 (GSK3β; [1]) [nM] | IC50 (GSK3α) [nM] | IC50 (pTau) [nM] | IC50 (GSK3β) [nM] | IC50 (GSK3α; second value of the cell, 250 pM enzyme, 20 uM ATP, 20 hours at room temperature, read-out: GSK3β/α (nM): GSK3α IC50) [nM] |
| --- | --- | --- | --- | --- | --- |
| CC(C)(C)S(=O)(=O)c1ccncc1NC(=O)c1ccnc(Nc2ccc(C(F)(F)F)cn2)c1 [Example 187, N-(4-(tert-butylsulfonyl)pyridin-3-yl)-2-((5-(trifluoromethyl)pyridin-2-yl)amino)isonicotinamide] | 0.4 | 0.07 | 1.1 |  |  |
| O=C(Nc1cncc(-c2ccccc2)c1)c1ccnc(Nc2cccc(C(F)(F)F)n2)c1 [Example 144, N-(5-Phenylpyridin-3-yl)-2-((6-(trifluoromethyl)pyridin-2-yl)amino)isonicotinamide] | 10 | 39 | 910 |  |  |
| O=C(Nc1cnncc1-c1ccccc1)c1ccnc(Nc2ccc(C(F)(F)F)cn2)c1 [Example 198, N-(5-Phenylpyridazin-4-yl)-2-((5-(trifluoromethyl)pyridin-2-yl)amino)isonicotinamide] | 6.7 | 2.9 | 180 |  |  |
| C[C@H]1COCCN1c1ccncc1NC(=O)c1ccnc(Nc2ccc(C(F)(F)F)cn2)c1 [Example 20, (S)—N-(4-(3-Methylmorpholino)pyridin-3-yl)-2-((5-(trifluoromethyl)pyridin-2-yl)amino)isonicotinamide] | 0.1 | 0.09 | 0.66 |  |  |
| O=C(Nc1cnccc1C1=CCCCC1)c1ccnc(Nc2ccc(C(F)(F)F)cn2)c1 [Example 36, N-(4-(Cyclohex-1-en-1-yl)pyridin-3-yl)-2-((5-(trifluoromethyl)pyridin-2-yl)amino)isonicotinamide] | 2.9 | 1.4 | 130 |  |  |
| O=C(Nc1cncc(OCC(F)(F)F)c1)c1ccnc(Nc2cccc(C(F)(F)F)n2)c1 [Example 123, N-(5-(2,2,2-Trifluoroethoxy)pyridin-3-yl)-2-((6-(trifluoromethyl)pyridin-2-yl)amino)isonicotinamide] |  | 3.2 | 520 | 7.4 |  |
| CC(C)(C)COc1ccncc1NC(=O)c1ccnc(Nc2ccc(C#N)cn2)c1 [Example 25, 2-((5-Cyanopyridin-2-yl)amino)-N-(4-(neopentyloxy)pyridin-3-yl)isonicotinamide] | 4.3 | 2 | 30 |  |  |
| Cn1ncc(NC(=O)c2ccnc(Nc3ccc(C(F)(F)F)cn3)c2)c1C(C)(O)C1CC1 (stereo not drawn) [Example 209, N-(5-(1-Cyclopropyl-1-hydroxyethyl)-1-methyl-1H-pyrazol-4-yl)-2-((5-(trifluoromethyl)pyridin-2-yl)amino)isonicotinamide] | 0.3 | 0.21 | 21 |  |  |
| CC(C)(C)COc1cc(F)ncc1NC(=O)c1ccnc(Nc2ccc(Cl)cn2)c1 [Example 112, 2-((5-Chloropyridin-2-yl)amino)-N-(6-fluoro-4-(neopentyloxy)pyridin-3-yl)isonicotinamide] | 5 | 3 | 850 |  |  |
| O=C(Nc1cnccc1OCC(F)F)c1ccnc(Nc2ccc(C(F)(F)F)cn2)c1 [Example 42, N-(4-(2,2-Difluoroethoxy)pyridin-3-yl)-2-((5-(trifluoromethyl)pyridin-2-yl)amino)isonicotinamide] | 0.49 | 0.27 | 21 |  |  |
| O=C(Nc1cnccc1-c1ccc(F)cc1C(F)(F)F)c1ccnc(Nc2ccc(C(F)(F)F)cn2)c1 [Example 53, N-(4-(2-Trifluoromethyl-4-fluoro-phenyl)pyridin-3-yl)-2-((5-(trifluoromethyl)pyridin-2-yl)amino)isonicotinamide] | 0.51 | 0.57 | 8.3 |  |  |
| O=C(Nc1cnccc1-c1ccc(F)cc1F)c1ccnc(Nc2ccc(C(F)(F)F)cn2)c1 [Example 54, N-(4-(2,4-Difluoro-phenyl)pyridin-3-yl)-2-((5-(trifluoromethyl)pyridin-2-yl)amino)isonicotinamide] | 2.8 | 0.96 | 57 |  |  |
| CC[C@@]1(c2cc(Cl)ncc2NC(=O)c2ccnc(Nc3ccc(C(F)(F)F)cn3)c2)OC[C@H](C)O1 [Example 89, N-(6-Chloro-4-((2R,4S)-2-ethyl-4-methyl-1,3-dioxolan-2-yl)pyridin-3-yl)-2-((5-(trifluoromethyl)pyridin-2-yl)amino)isonicotinamide] | 1.6 | 1.7 | 340 |  |  |
| Cc1cc(N2CCC(F)(F)CC2)c(NC(=O)c2ccnc(Nc3ccc(C(F)(F)F)cn3)c2)cn1 [Example 72, N-(6-Methyl-4-(4,4-difluoropiperidin-1-yl)pyridin-3-yl)-2-((5-(trifluoromethyl)pyridin-2-yl)amino)isonicotinamide] | 3.5 | 0.76 | 120 |  |  |
| CC1OC(C)(c2cc(Cl)ncc2NC(=O)c2ccnc(Nc3ccc(C(F)(F)F)cn3)c2)OC1C (stereo not drawn) [Example 78, N-(6-Chloro-4-(2,4,5-trimethyl-1,3-dioxolan-2-yl)pyridin-3-yl)-2-((5-(trifluoromethyl)pyridin-2-yl)amino)isonicotinamide] | 4.5 | 3.2 | 170 |  |  |
| O=C(Nc1cncc2ccccc12)c1ccnc(Nc2ccc(C(F)(F)F)cn2)c1 [Example 64, N-(Isoquinolin-4-yl)-2-((5-(trifluoromethyl)pyridin-2-yl)amino)isonicotinamide] | 10 | 3.1 | 610 |  |  |
| O=C(Nc1cnccc1-c1ccccc1)c1ccnc(Nc2cccc(F)n2)c1 [Example 7, 2-((6-Fluoropyridin-2-yl)amino)-N-(4-phenylpyridin-3-yl)isonicotinamide] | 8.5 | 5.9 | 249 |  |  |
| O=C(Nc1cnc2cccnn12)c1ccnc(Nc2ccc(C(F)(F)F)cn2)c1 [Example 210, N-(Imidazo[1,2-b]pyridazin-3-yl)-2-((5-(trifluoromethyl)pyridin-2-yl)amino)isonicotinamide] | 33 | 11 | 2300 |  |  |
| O=C(Nc1cnc(Cl)cc1-c1ccccc1)c1ccnc(Nc2ccc(C(F)(F)F)cn2)c1 [Example 66, N-(6-Chloro-4-phenylpyridin-3-yl)-2-((5-(trifluoromethyl)pyridin-2-yl)amino)isonicotinamide] | 61 | 29 | 5850 |  |  |
| Cc1nc(Nc2cc(C(=O)Nc3cncc(-c4ccccc4F)c3)ccn2)ccc1C#N [Example 155, 2-((5-Cyano-6-methylpyridin-2-yl)amino)-N-(5-(2-fluorophenyl)pyridin-3-yl)isonicotinamide] | 3.6 | 1.2 | 570 |  |  |
| O=C(Nc1cncc(-c2cccc(F)c2F)c1)c1ccnc(Nc2ccc(C(F)(F)F)cn2)c1 [Example 130, N-(5-(2,3-Difluorophenyl)pyridin-3-yl)-2-((5-(trifluoromethyl)pyridin-2-yl)amino)isonicotinamide] | 42 | 20 | 2600 |  |  |
| C[C@@H]1CO[C@](c2cc(Cl)ncc2NC(=O)c2ccnc(Nc3ccc(C(F)(F)F)cn3)c2)(C2CC2)O1 [Example 96, N-(6-Chloro-4-((2R,4R)-2-cyclopropyl-4-methyl-1,3-dioxolan-2-yl)pyridin-3-yl)-2-((5-(trifluoromethyl)pyridin-2-yl)amino)isonicotinamide] | 0.29 | 0.16 | 39 |  |  |
| CC(C)(C)Sc1ccncc1NC(=O)c1ccnc(Nc2ccc(C(F)(F)F)cn2)c1 [Example 174, N-(4-(tert-Butylthio)pyridin-3-yl)-2-((5-(trifluoromethyl)pyridin-2-yl)amino)isonicotinamide] | 0.14 | 0.08 | 27 |  |  |
| CCOc1ccncc1NC(=O)c1ccnc(Nc2cc(C)ccn2)c1 [Example 13, N-(4-Ethoxypyridin-3-yl)-2-((4-methylpyridin-2-yl)amino)isonicotinamide] | 1.4 | 2.3 | 154 |  |  |
| O=C(Nc1cnccc1C1CCOCC1)c1ccnc(Nc2ccc(C(F)(F)F)cn2)c1 [Example 35, N-(4-(Tetrahydro-2H-pyran-4-yl)pyridin-3-yl)-2-((5-(trifluoromethyl)pyridin-2-yl)amino)isonicotinamide] |  |  | 760 | 16 | 8.7 |
| Cc1ccc(Nc2cc(C(=O)Nc3cncc(-c4ccccc4F)c3)ccn2)nc1 [Example 133, N-(5-(2-Fluorophenyl)pyridin-3-yl)-2-((5-methylpyridin-2-yl)amino)isonicotinamide] | 7.3 | 3.4 | 1400 |  |  |
| O=C(Nc1cncc(-c2ccccc2F)c1)c1ccnc(Nc2ccc3cnccc3n2)c1 [Example 153, 2-((1,6-Naphthyridin-2-yl)amino)-N-(5-(2-fluorophenyl)pyridin-3-yl)isonicotinamide] | 1.5 | 0.45 | 200 |  |  |
| CC1(COc2cncc(NC(=O)c3ccnc(Nc4cccc(C(F)(F)F)n4)c3)c2)CC1 [Example 125, N-(5-((1-Methylcyclopropyl)methoxy)pyridin-3-yl)-2-((6-(trifluoromethyl)pyridin-2-yl)amino)isonicotinamide] |  | 3.8 | 2200 | 12 |  |
| CC1(c2cc(Cl)ncc2NC(=O)c2ccnc(Nc3ccc(C(F)(F)F)cn3)c2)CCCO1 (stereo not drawn) [Example 77, N-(6-Chloro-4-(2-methyltetrahydrofuran-2-yl)pyridin-3-yl)-2-((5-(trifluoromethyl)pyridin-2-yl)amino)isonicotinamide] | 0.63 | 0.35 | 31 |  |  |
| CC(C)Sc1ccncc1NC(=O)c1ccnc(Nc2ccc(C(F)(F)F)cn2)c1 [Example 173, N-(4-(Isopropylthio)pyridin-3-yl)-2-((5-(trifluoromethyl)pyridin-2-yl)amino)isonicotinamide] | 0.52 | 0.19 | 48 |  |  |
